Reference: patent US20250387359A1, “COMPOUNDS AND METHODS FOR THE TREATMENT OF PARASITIC INFECTIONS” (THE BOARD OF TRUSTEES OF THE UNIVERSITY OF ILLINOIS, priority 2019, published 2025)
Read-outs that look alike come from different tables or passages of the source.

Tests used:
HCT-8 cells = test: Compound cytotoxicity assay (WST-1) in HCT-8 cells; assay type: cell-based, human
Procedure: Compound cytotoxicity assay. […] A colorimetric assay using the cell proliferation reagent WST-1 (Roche, USA) for the quantification of cell viability was performed. […] When the cells were confluent, the old medium was replaced with fresh medium with or without varying concentrations of chemical compound. After 24 h of culture, 10 μl of the cell proliferation reagent WST-1, (for quantification of cell viability) was added to each well, mixed and the plates incubated for 1 h at 37 C with 5% CO2 in the dark. […] Molecular Devices, USA).

[1] = target: T1, recombinant CpLDH protein (Cryptosporidium parvum, UniProt Q9GT92, F198L/K295E/R251K); test: biochemical; assay type: biochemical; details: 20 μM compound; 10 mM pyruvate, 1 mM NADH
Procedure: (§1) Biochemical assays. The coding sequence of CpLDH was cloned from cDNA prepared from the AUCP-1 isolate of C. parvum, and the His-tagged CpLDH recombinant protein expressed in Escherichia coli, and purified in native form essentially as previously described (Int. J. Parasitol. 2017; 47(13), 867-874). Briefly, cDNA was prepared from total RNA extracted from the AUCP-1 isolate of C. parvum, and the coding sequencing of CpLDH (Genebank accession number AF274310.1) was PCR-amplified from the cDNA using a primer pair with a XhoI restriction site and a BamHI site. The PCR amplicon was cloned at the XhoI/BamHI site of the pET15b expression vector in-frame with the hexahistidine (His-tag) at the N-terminal and sequenced to confirm identity. The recombinant expression vector was transformed into protein expression E. coli BL21-CodonPlus-DE3-RIL (Stratagene). Transformed E. coli was cultured at 37° C. in Luria broth medium (supplemented with 100 μg/ml ampicillin and 34 μg/ml chloramphenicol) to an A600 of 0.8 followed by addition of 1 mM isopropyl-β-d-thiogalactopyranoside to induce protein expression. The expression E. coli was harvested and lysed under native conditions by sonicating in lysis buffer (50 mM NaH2PO4, 300 mM NaCl, 10 mM Imidazole, pH 8.0) containing a 1× EDTA-free protease inhibitor cocktail, 600 units benzonase and 30 kU lysozyme (EMD Millipore). The lysate was clarified by centrifugation and the His-tagged recombinant protein purified under native conditions by nickel-affinity chromatography according to the manufacturer's instructions (Novagen). The wash buffer used contained 50 mM NaH2PO4, 300 mM NaCl and 20 mM Imidazole, pH 8.0, while the elution buffer was composed of 50 mM NaH2PO4, 300 mM NaCl, 250 mM Imidazole, pH 8.0. The eluate was dialyzed using a buffer containing 5 mM Hepes-KOH (pH 7.8) and 0.5 mM DTT. The purity of the recombinant protein was determined by SDS/PAGE, and the concentration measured using a Qubit 3.0 fluorometer (Life technologies). […] On the other hand, the catalytic activity of CpLDH recombinant protein for the oxidation of lactate to pyruvate was determined by measuring the change in optical density of a 100 μl reaction mixture containing 100 mM lactate, 1 mM NAD^+, 100 mM Tris, pH 9.2, with varying concentrations of CpLDH recombinant protein at 25° C. […] In all assays, reaction mixtures without recombinant CpLDH protein were included as negative controls. All assays were performed in triplicate and repeated at least thrice. The change in optical density was measured every 15 seconds for a total of 2 minutes using a Spectra Max 384 Plus plate reader (Molecular Devices) at a wavelength of 340 nm.
Screening compounds for inhibitory activity against CpLDH. The chemical compounds were obtained from the National Cancer Institute/Developmental Therapeutics Program Open Chemical Repository. They consisted of a diverse set of compounds (n=27) reported previously (Int J Parasitol Drugs Drug Resist. 2016; 6(1), 44-53), and a Mechanistic Set IV compounds (n=800). The compounds were reconstituted in dimethyl sulfoxide (DMSO) as stock solutions. Just before use, aliquots of the stock solutions were diluted in sterile distilled water to generate working solutions, such that the final amount of DMSO added to the reaction mixtures was less than 1% (V/V). The compounds were tested for their inhibitory effect against the enzymatic activity of recombinant His-tagged CpLDH for catalyzing the reduction of pyruvate to lactate. […] Control reactions without recombinant CpLDH protein were included. Reactions were performed in triplicate and repeated at least thrice. The change in optical density was measured every 15 seconds for a total of 2 minutes using a Spectra Max 384 Plus plate reader (Molecular Devices) at a wavelength of 340 nm.

[2] = target: T1, recombinant CpLDH protein; test: CpLDH enzyme kinetics on substrates and co-factors; assay type: biochemical; details: for Km: pyruvate/NADH: reduction of pyruvate to lactate, lactate/NAD+: oxidation of lactate to pyruvate, 25° C.; for Kcat / Vmax: pyruvate/NADH: reduction, lactate/NAD+: oxidation
Procedure: as §1

[3] = target: T1, recombinant CpLDH protein; details: reported by Zhang et al., PLoS Pathog. 2015; cited from earlier work
[4] = HCT-8 cells, 24 h, WST-1, read-out: CYTOTOXICITY IC50

T1 sequence (Q9GT92 whole entry F198L/K295E/R251K): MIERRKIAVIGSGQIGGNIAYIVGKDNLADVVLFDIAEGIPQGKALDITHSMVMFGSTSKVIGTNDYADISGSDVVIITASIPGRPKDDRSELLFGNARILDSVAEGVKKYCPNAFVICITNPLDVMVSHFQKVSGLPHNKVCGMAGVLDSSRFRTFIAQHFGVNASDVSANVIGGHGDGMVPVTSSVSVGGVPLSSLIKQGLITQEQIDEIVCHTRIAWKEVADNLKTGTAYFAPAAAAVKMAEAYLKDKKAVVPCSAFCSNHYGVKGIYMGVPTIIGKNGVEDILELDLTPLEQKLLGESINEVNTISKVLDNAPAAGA

Row | Compound | IC50 (HCT-8 cells) | effect on catalytic activity of recombinant CpLDH [1] | other results
1 | O=S(=O)(O)c1cc(N=[N+]([O-])c2cc(S(=O)(=O)O)c3ccccc3c2)cc2ccccc12 [NSC37031] | 333 µM | significantly (P<0.05) inhibited | 
2 | O=C([CH-]C(=O)C(F)(F)F)c1ccccc1.O=C([CH-]C(=O)C(F)(F)F)c1ccccc1.O=C([CH-]C(=O)C(F)(F)F)c1ccccc1.O=C([CH-]C(=O)C(F)(F)F)c1ccccc1.[Eu+3].c1ccncc1 [NSC253995] | 83 µM | significant (P<0.05) inhibitory effect | 
3 | O=S(=O)([O-])c1cc(N=Nc2cc(S(=O)(=O)[O-])c3ccccc3c2O)ccc1/C=C/c1ccc(N=Nc2cc(S(=O)(=O)[O-])c3ccccc3c2O)cc1S(=O)(=O)[O-].[Na+].[Na+].[Na+].[Na+] [NSC34931] | 71.1 µM | significant (P<0.05) inhibitory effect | 
4 | Cc1cc2c(C(C)C)c(O)c(O)c(C=O)c2c(O)c1-c1c(C)cc2c(C(C)C)c(O)c(O)c(C=O)c2c1O [NSC56817] |  | significant (P<0.05) inhibitory effect | IC50 (HCT-8 cells; [4]): 64.2 µM
5 | O=S(=O)(O)c1cc(N=Nc2cc(S(=O)(=O)O)c3cccnc3c2O)ccc1/C=C/c1ccc(N=Nc2cc(S(=O)(=O)O)c3cccnc3c2O)cc1S(=O)(=O)O [NSC638352] | 116 µM | significant (P<0.05) inhibitory effect | 
6 | CCOC(C)C(C=NNC(N)=S)=NNC(N)=S (centres unmarked) [NSC82116] | 118 µM | significant (P<0.05) inhibitory effect | 
7 | COc1ccc(/C=C/C(=O)Oc2cc(O)cc(O)c2)cc1 [NSC175296] | 156 µM |  | 
8 | O=c1oc2cc(O)ccc2c2oc3cc(O)ccc3c12 [NSC22842] | 83.5 µM | significant (P<0.05) inhibitory effect | 
9 | Cc1cc2c(c3oc(C4(C)OC4C4OC4C)cc(=O)c13)C(=O)c1c(O)c(C3CC(C)(N(C)C)C(O)C(C)O3)cc(C3CC(N(C)C)C(O)C(C)O3)c1C2=O (centres unmarked) [NSC70929] | 181 µM | significant (P<0.05) inhibitory effect | 
10 | CCOC(=O)Cc1c(C)c2cc(C(=O)c3ccccc3)c(O)cc2oc1=O [NSC115538] | 158 µM |  | 
11 | CC(O)C(=O)O (centres unmarked) [Lactate, lactate] |  |  | Km ([2]; read-out: Km): 39600 µM; Kcat [2]: 0.07 s⁻¹; Vmax [2]: 0.04 nmol⁻¹ µg⁻¹ min⁻¹; Kcat [3]: (0.66)* s^−1; Km [3]: 10800 µM; Vmax [3]: (0.53)* nmol^−1 · μg^−1 · min^−1
12 | CC(=O)Nc1ccc(-c2nc3ccccc3s2)cc1 [NSC33006] | 87.3 µM | significant (P<0.05) inhibitory effect | 
13 | CC(=O)C(=O)O [Pyruvate, pyruvate] |  |  | Km [2]: 731 µM
14 | NC(=O)C1=CN([C@@H]2O[C@H](COP(=O)(O)OP(=O)(O)OC[C@H]3O[C@@H](n4cnc5c(N)ncnc54)[C@H](O)[C@@H]3O)[C@@H](O)[C@H]2O)C=CC1 [NADH] |  |  | Km ([2]; read-out: Km): 734 µM; Vmax [2]: 6.29 nmol⁻¹ µg⁻¹ min⁻¹; Kcat [3]: (11.70)* s^−1; Km [3]: 92 µM; Vmax [3]: (9.33)* nmol^−1 · μg^−1 · min^−1
15 | CN(C)C(=S)SSC(=S)N(C)C [NSC1771] |  | significant (P<0.05) inhibitory effect | IC50 (HCT-8 cells; [4]): 110 µM
16 | O=C(O)[C@@H]1[C@H](C(=O)O)[C@]2(Cl)C(Cl)=C(Cl)[C@@]1(Cl)C2(Cl)Cl [NSC22225] | 96.8 µM | significantly (P<0.05) inhibited | 
17 | Cc1ccc2c(sc(-c3ccc4c(c3)sc(-c3ccc(N(C)C)cc3)[n+]4C)[n+]2C)c1S(=O)(=O)[O-].[Cl-] [NSC71948] | 106 µM | significant (P<0.05) inhibitory effect | 
18 | O=[N+]([O-])c1ccc2c(N=Nc3c(O)ccc4ccccc34)c(O)cc(S(=O)(=O)[O-])c2c1.[Na+] [NSC73413] | 220 µM | significant (P<0.05) inhibitory effect | 
19 | [Cl][Cd][Cl] [NSC51148] | 39.6 µM | significant (P<0.05) inhibitory effect | 
20 | CC1=C(CCC(=O)O)c2cc3nc(cc4[nH]c(cc4C)cc4[nH]c(cc1n2)cc4C)C(C)=C3CCC(=O)O [NSC18298] | 81.9 µM | significant (P<0.05) inhibitory effect | 
21 | O=[N+]([O-])c1cccc2c(N=Nc3ccc4ccccc4c3O)c(O)cc(S(=O)(=O)O)c12.[Na+] [NSC85561] | 103 µM | significant (P<0.05) inhibitory effect | 
22 | NC(=O)c1ccc[n+]([C@@H]2O[C@H](COP(=O)([O-])OP(=O)(O)OC[C@H]3O[C@@H](n4cnc5c(N)ncnc54)[C@H](O)[C@@H]3O)[C@@H](O)[C@H]2O)c1 [NAD^+] |  |  | Km ([2]; read-out: Km): 56 µM; Kcat [2]: 0.11 s⁻¹; Vmax [2]: 0.07 nmol⁻¹ µg⁻¹ min⁻¹; Kcat [3]: (0.70)* s^−1; Km [3]: 62 µM; Vmax [3]: (0.56)* nmol^−1 · μg^−1 · min^−1
23 | O=Cc1cc([N+](=O)[O-])no1 [NSC626433] | 265 µM | significant (P<0.05) inhibitory effect | 
24 | CC(O)CCC(=O)c1ccoc1 (centres unmarked) [NSC349438] | 93.9 µM | significant (P<0.05) inhibitory effect | 
25 | O=C(CC(=O)C(F)(F)F)c1csc2ccccc12 [NSC80396] | 91.9 µM |  | 
26 | N#CCCN(CCC#N)Cc1cc(O)c(CN(CCC#N)CCC#N)cc1O [NSC70925] | 142 µM | significant (P<0.05) inhibitory effect | 
27 | COC(=O)C1=C(C(=O)OC)SC2(S1)C(C(=O)OC)=C(C(=O)OC)Sc1c2ssc1=O [NSC686349] | 283 µM | significant (P<0.05) inhibitory effect | 
28 | Cc1cc(N(CCCl)CCCl)ccc1/C=N/NC(=O)Cc1cc(=O)oc2cc(O)ccc12 [NSC79688] |  | significant (P<0.05) inhibitory effect | IC50 (HCT-8 cells; [4]): 145 µM
29 | COc1ccc(CCN(C)CCCC(C#N)(c2ccc(OC)c(OC)c2)C(C)C)cc1OC.Cl (centres unmarked) [NSC657799] |  | significant (P<0.05) inhibitory effect | 
30 | O=C1/C(=C/c2ccccc2)CN(C(=O)/C=C/c2ccccc2)C/C1=C\c1ccccc1 [NSC638634] | 157 µM |  | 
